{
  "source": "paper PMC4627230",
  "about": "“Identification of TAX2 peptide as a new unpredicted anti-cancer agent” (Oncotarget, 2015)",
  "key": {"HUVEC": {"test_system": "HUVEC", "assay": "HUVEC viability", "type": "cell-based, human"}, "BALB/C nu/nu mice": {"test_system": "BALB/C nu/nu mice", "assay": "Tolerability in xenograft-bearing mice", "type": "in vivo, mouse", "procedure": "For the subcutaneous melanoma tumor model, suspensions of B16F1 cells (2.5 × 10^5 cells in 100 μL RPMI-1640 medium) were subcutaneously injected into the left flank of different randomized series of syngeneic C57BL/6 mice (n = 8–10 per group), as previously described. Intraperitoneal administrations of peptide (10 mg/kg mouse weight) or controls (physiological serum 0.9% (w/v) NaCl or a scrambled peptide) were performed at days 3, 5 and 7. In human pancreatic carcinoma xenograft experiments, 3 × 10^6 MIA PaCa-2 cells/mouse were implanted subcutaneously into the left flank of BALB/C athymic nude mice, then TAX2 intraperitoneal treatments (10 mg/kg mouse weight) were performed 3 times a week during 4 weeks starting at day 10 after tumor cells inoculation. Tumor volume was determined according to v = 0.5 A × B^2, where A denotes the largest dimension of the tumor and B represents the smallest dimension. At days indicated, mice were sacrificed and tumors were surgically extracted and fixed in 4% paraformaldehyde for further morphologic studies and for magnetic resonance imaging, or frozen for immunohistochemistry. Mice were also weighed every 2–3 days and daily checked for any modification in their behavior. […]"}, "TSP-1": {"test_system": "TSP-1", "assay": "Microscale thermophoresis", "type": "binding", "details": "data not shown"}, "VEGFR2": {"test_system": "VEGFR2", "assay": "VEGF-induced VEGFR2 phosphorylation", "type": "cell-based, human", "details": "HUVECs, 100 μM for 12 h, then 30 ng/mL VEGF 5 min; n = 3"}, "[1]": {"test_system": "lung metastasis of invasive B16F10 melanoma cells", "assay": "Experimental lung metastasis", "type": "in vivo", "details": "data not shown"}, "[2]": {"test_system": "MIA PaCa-2 xenograft in BALB/C nu/nu mice", "assay": "MIA PaCa-2 human pancreatic carcinoma xenograft growth", "type": "in vivo, human tumor xenograft in mouse", "procedure": "For the subcutaneous melanoma tumor model, suspensions of B16F1 cells (2.5 × 10^5 cells in 100 μL RPMI-1640 medium) were subcutaneously injected into the left flank of different randomized series of syngeneic C57BL/6 mice (n = 8–10 per group), as previously described. Intraperitoneal administrations of peptide (10 mg/kg mouse weight) or controls (physiological serum 0.9% (w/v) NaCl or a scrambled peptide) were performed at days 3, 5 and 7. In human pancreatic carcinoma xenograft experiments, 3 × 10^6 MIA PaCa-2 cells/mouse were implanted subcutaneously into the left flank of BALB/C athymic nude mice, then TAX2 intraperitoneal treatments (10 mg/kg mouse weight) were performed 3 times a week during 4 weeks starting at day 10 after tumor cells inoculation. Tumor volume was determined according to v = 0.5 A × B^2, where A denotes the largest dimension of the tumor and B represents the smallest dimension. At days indicated, mice were sacrificed and tumors were surgically extracted and fixed in 4% paraformaldehyde for further morphologic studies and for magnetic resonance imaging, or frozen for immunohistochemistry. Mice were also weighed every 2–3 days and daily checked for any modification in their behavior. Loss of 15% body weight was an indication for euthanasia as well as severe tumor necrosis, as it was sometimes associated with skin ulceration that would result in loss of body fluid and/or infection."}, "TSP-1:CD47": {"test_system": "TSP-1:CD47", "assay": "Co-immunoprecipitation TSP-1:CD47 in HUVECs", "type": "cell-based, human", "details": "100 μM vs scrambled peptide 100 μM, n = 3", "procedure": "Figure 2 TAX2 peptide impairs endothelial cell migration and inhibits angiogenesis in vitro and ex vivo A. HUVECs were treated with TAX2 (100 μM) or scrambled peptide (Ctrl, 100 μM). CD47 was immunoprecipitated from total protein lysates using anti-CD47 (clone B6H12) and non-specific IgGs were used as a negative control. Immunocomplexes were then submitted to SDS-PAGE and immunoblotted (IB) using specific TSP-1 and CD47 antibodies. Histogram represents the quantification of co-immunoprecipitated TSP-1 relative to immunoprecipitated CD47. Results are expressed as percentage compared to control (n = 3 separate experiments, t test). B. HUVECs (1 × 10^5 per well) were grown at confluence and then cell proliferation was inhibited by incubating with 10 μg/mL mitomycin C for 2 h. […] Graph represents the quantification of the wounded area. […] Hoechst-stained migrating cells attached on outside surface of the top chamber were photographed (20× objective) and counted. Results are expressed as percentage of migrated cells as compared to control. […] After 8 h incubation, HUVEC tube-like formation was observed on an inverted microscope (40×) and quantification of network total length was done using ImageJ software. […] Data are expressed as the mean ± SE from at least 3 independent experiments, each performed in triplicate. […] The transcriptional level of TSP-1 was assessed by RT-PCR and normalized to β-actin. […]"}},
  "data": [
    {"sequence": "CEVSQLLKGDAC (disulfide) [TAX2, CD47-derived cyclic disulfide dodecapeptide …]", "values": [
      {"measurement": "cytotoxic effect on HUVECs", "setting": "HUVEC", "value": "cannot be attributed to any cytotoxic effect"},
      {"measurement": "HUVEC viability", "setting": "HUVEC; percent compared to control treatment, t test", "value": "not significant"},
      {"measurement": "clinical sign or weight loss", "setting": "BALB/C nu/nu mice; 10 mg/kg i.p. 3 times a week for 4 weeks", "value": "mice did not exhibit any other clinical sign or weight loss"},
      {"measurement": "thrombosis, hemorrhage or embolism in xenograft-bearing mice", "setting": "BALB/C nu/nu mice; healthy organs, human pancreatic carcinoma model", "value": "no signs of thrombosis, hemorrhage or embolism were observed in healthy organs"},
      {"measurement": "binding to TSP-1 by microscale thermophoresis", "setting": "TSP-1", "value": "confirmed"},
      {"measurement": "VEGF-induced VEGFR2 phosphorylation", "setting": "VEGFR2", "value": "partially reverses VEGF-induced VEGFR2 phosphorylation"},
      {"measurement": "lung metastasis formation", "setting": "[1]", "value": "did not increase metastasis formation"},
      {"measurement": "xenograft growth delay", "setting": "[2]; 10 mg/kg i.p. 3 times a week for 4 weeks from day 10", "value": "strong delay"},
      {"measurement": "decrease of tumor volume at day 38", "setting": "[2]; 10 mg/kg i.p. 3 times a week for 4 weeks from day 10, n = 9, p < 0.05", "value": 2, "unit": "fold"},
      {"measurement": "tumor volume at day 24, xenograft", "setting": "[2]; 10 mg/kg i.p. 3 times a week from day 10, n = 15", "value": "no differences in measured tumor volume were observed"},
      {"measurement": "inhibition rate compared to 5 mg/kg bevacizumab twice weekly i.p.", "setting": "[2]; MIA PaCa-2 xenograft, bevacizumab data from ref [56]", "value": "higher inhibition rates"},
      {"measurement": "TSP-1 binding to CD47 (co-immunoprecipitation)", "setting": "TSP-1:CD47", "value": "specifically prevents TSP-1 binding to CD47"}
    ]}
  ]
}
